Experimental data: paper PMC12561453, “Synthesis and Structure–Activity Relationship Study of 2-(amino)quinazolin-4(3H)-one Derivatives as Potential Inhibitors of Methicillin-Resistant Staphylococcus aureus (MRSA)” (Antibiotics, 2025)
Converted amounts (≈) assume the structure as drawn. Where two headings read alike, the source gives them in different places.

Columns and labels:
CYP1A2 = target: T1, CYP1A2 (Homo sapiens, UniProt P05177); experiment: CYP inhibition in human liver microsomes, 1A2; format: in vitro ADME
T1 construct: from tissue; host or cells: human liver microsomes
T1 sequence (P05177 1-516): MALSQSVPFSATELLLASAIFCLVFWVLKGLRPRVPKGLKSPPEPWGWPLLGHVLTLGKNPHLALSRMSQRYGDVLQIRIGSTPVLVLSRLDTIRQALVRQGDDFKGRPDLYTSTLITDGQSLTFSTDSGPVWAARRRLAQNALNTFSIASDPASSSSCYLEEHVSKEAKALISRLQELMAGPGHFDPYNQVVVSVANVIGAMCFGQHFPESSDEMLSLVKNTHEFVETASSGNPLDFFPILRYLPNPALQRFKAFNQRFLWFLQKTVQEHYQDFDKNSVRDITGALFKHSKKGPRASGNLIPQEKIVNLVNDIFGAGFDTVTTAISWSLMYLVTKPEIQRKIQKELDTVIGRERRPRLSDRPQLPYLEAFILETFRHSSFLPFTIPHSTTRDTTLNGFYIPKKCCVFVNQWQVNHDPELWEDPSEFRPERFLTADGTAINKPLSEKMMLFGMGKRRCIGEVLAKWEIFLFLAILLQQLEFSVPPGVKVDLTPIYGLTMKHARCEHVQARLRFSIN
Method: (§1) Table S2. Result of microsomal stability, plasma protein binding rate, and CYP inhibition of 6l and 6y
(§2) Compound MSa PPBrat human rat human 1A2 2C9 2C19 2D6 3A4
(§3) a % of remaining after 30 min. b plasma protein binding rate (%) at 5 μM concentrations. c % of CYP
(§4) inhibition in human liver microsomes at 10 μM concentrations. […]

[1] = Cytotoxicity in NIH 3T3 cells; format: cell-based; settings: mouse, NIH 3T3 cells (embryonic fibroblast cell line)
Method: (§5) Table S1. Results of hERG binding assay and cytotoxicity of 6l and 6y
(§6) Compound hERGa CytotoxicityVERO HFL-1 L929 NIH 3T3 CHO-K1
(§7) a % inhibition at 10 μM concentrations. b IC50 values in various mammalian cell lines. […]

[2] = Cytotoxicity in L929 cells; format: cell-based; settings: mouse, L929 cells (NCTC clone 929, fibroblast cell line)
Method: as §5, §6, §7

[3] = Microsomal stability, human; format: in vitro ADME; settings: human microsomes
Method: as §1, §2, §3, §4

CYP2C9 = target: T2, CYP2C9 (Homo sapiens, UniProt P11712); experiment: CYP inhibition in human liver microsomes, 2C9; format: in vitro ADME
T2 construct: from tissue; host or cells: human liver microsomes
Method: as §1, §2, §3, §4

[4] = Plasma protein binding, rat; format: in vitro ADME; settings: read-out: PPB rat, plasma protein binding rate (converted)
Method: as §1, §2, §3, §4

in vitro = format: cell-based; settings: Chinese hamster
Method: as §5, §6, §7

S. aureus ATCC25923 = experiment: Broth microdilution dose-response, S. aureus ATCC25923; format: cell-based, Staphylococcus aureus; settings: Staphylococcus aureus, ATCC25923, methicillin-sensitive strain; OD600 after 18–24 h; read-out: ATCC25923 MIC50
Excerpt: (§8) The antistaphylococcal activities (MIC50) of the synthesized compounds were examined via a previously described broth microdilution method against two S. aureus strains: ATCC25923, a methicillin-sensitive reference strain, and JE2, a methicillin-resistant strain of the USA300 lineage (Figure 2, Table 1).
(§9) Staphylococcus aureus USA300, a methicillin-resistant strain, was obtained from the Nebraska Transposon Mutant Library. Staphylococcus aureus ATCC25923, a pan-drug-susceptible strain, was purchased from the American Type Culture Collection (ATCC) (Manassas, VA, USA). S. aureus strains were grown in Cation-Adjusted Mueller–Hinton broth (CAMHB) (Difco) at 37 °C. Bacterial strain stocks were stored in vials with 25% glycerol at −80 °C. For each experiment, overnight cultures were prepared by inoculating a frozen bacterial strain stock in 10 mL of CAMHB medium and incubating at 37 °C in a shaking incubator (180 rpm). For the preliminary screen and dose–response experiments, 100 µL of overnight culture was inoculated into 10 mL of fresh CAMHB and incubated for 3 h at 37 °C and 180 rpm.
(§10) Antibiotic susceptibility assay was tested according to modified Clinical and Laboratory Standards Institute (CLSI) laboratory guidelines for broth microdilution assays. S. aureus was cultured in CAMHB, and bacterial cells were prepared with an OD600 of 0.005. DRC plates were prepared by adding 40 µL of bacterial suspension to each well, where 10 µL of each compound had been dispensed for […] of two-fold serial dilutions starting at […]. After incubation of the plates at 37 °C for 18–24 h with 5% CO2, the growth of S. aureus was detected by measuring the OD600nm using an Ensight (Revvity) spectrometer (Revvity, Waltham, MA, USA).
(§11) Figure 2 In vitro antibacterial activities of 2-(amino)quinazolin-4(3H)-one derivatives. S. aureus ATCC25923 (blue) and USA300 JE (orange) strains were incubated with serial dilutions of 2-(amino)quinazolin-4(3H)-one derivatives (0.19–100 µM) for 18–24 h. The dose–responses were observed by measuring OD600nm. The plots were drawn from each group of strains with nonlinear curve fits.

[5] = Microsomal stability, rat; format: in vitro ADME; settings: rat microsomes
Method: as §1, §2, §3, §4

hERG = hERG (Homo sapiens, UniProt Q12809); experiment: hERG binding assay
Method: as §5, §6, §7

[6] = Plasma protein binding, human; format: in vitro ADME; settings: read-out: PPB human, plasma protein binding rate (converted)
Method: as §1, §2, §3, §4

[7] = Rat pharmacokinetic study; format: in vivo; settings: male rats
Method: Table S3. Rat pharmacokinetic study of 6l and 6y
Parametersa I.V., 2 mg/kg P.O., 10 mg/kg I.V., 5 mg/kg P. O . , 1 0 mg/kg
Cmax ([…]) NA 0.9 NA 0.2
CL (L/h/kg) 0.25 NA 1.8 NA
a All results are mean of experiments using three male rats. b NA: not applicable

CYP2D6 = target: T3, CYP2D6 (Homo sapiens, UniProt P10635); experiment: CYP inhibition in human liver microsomes, 2D6; format: in vitro ADME
T3 construct: from tissue; host or cells: human liver microsomes
Method: as §1, §2, §3, §4

S. aureus USA300 JE2 = experiment: Broth microdilution dose-response, S. aureus USA300 JE2 (MRSA); format: cell-based, Staphylococcus aureus; settings: Staphylococcus aureus, USA300, USA300 JE2, methicillin-resistant; OD600 after 18–24 h; read-out: USA300 MIC50
Excerpt: as §8, §9, §10, §11

[8] = rat, in vivo, iv, I.V., 5 mg/kg

hERG, sequence (Q12809 whole entry): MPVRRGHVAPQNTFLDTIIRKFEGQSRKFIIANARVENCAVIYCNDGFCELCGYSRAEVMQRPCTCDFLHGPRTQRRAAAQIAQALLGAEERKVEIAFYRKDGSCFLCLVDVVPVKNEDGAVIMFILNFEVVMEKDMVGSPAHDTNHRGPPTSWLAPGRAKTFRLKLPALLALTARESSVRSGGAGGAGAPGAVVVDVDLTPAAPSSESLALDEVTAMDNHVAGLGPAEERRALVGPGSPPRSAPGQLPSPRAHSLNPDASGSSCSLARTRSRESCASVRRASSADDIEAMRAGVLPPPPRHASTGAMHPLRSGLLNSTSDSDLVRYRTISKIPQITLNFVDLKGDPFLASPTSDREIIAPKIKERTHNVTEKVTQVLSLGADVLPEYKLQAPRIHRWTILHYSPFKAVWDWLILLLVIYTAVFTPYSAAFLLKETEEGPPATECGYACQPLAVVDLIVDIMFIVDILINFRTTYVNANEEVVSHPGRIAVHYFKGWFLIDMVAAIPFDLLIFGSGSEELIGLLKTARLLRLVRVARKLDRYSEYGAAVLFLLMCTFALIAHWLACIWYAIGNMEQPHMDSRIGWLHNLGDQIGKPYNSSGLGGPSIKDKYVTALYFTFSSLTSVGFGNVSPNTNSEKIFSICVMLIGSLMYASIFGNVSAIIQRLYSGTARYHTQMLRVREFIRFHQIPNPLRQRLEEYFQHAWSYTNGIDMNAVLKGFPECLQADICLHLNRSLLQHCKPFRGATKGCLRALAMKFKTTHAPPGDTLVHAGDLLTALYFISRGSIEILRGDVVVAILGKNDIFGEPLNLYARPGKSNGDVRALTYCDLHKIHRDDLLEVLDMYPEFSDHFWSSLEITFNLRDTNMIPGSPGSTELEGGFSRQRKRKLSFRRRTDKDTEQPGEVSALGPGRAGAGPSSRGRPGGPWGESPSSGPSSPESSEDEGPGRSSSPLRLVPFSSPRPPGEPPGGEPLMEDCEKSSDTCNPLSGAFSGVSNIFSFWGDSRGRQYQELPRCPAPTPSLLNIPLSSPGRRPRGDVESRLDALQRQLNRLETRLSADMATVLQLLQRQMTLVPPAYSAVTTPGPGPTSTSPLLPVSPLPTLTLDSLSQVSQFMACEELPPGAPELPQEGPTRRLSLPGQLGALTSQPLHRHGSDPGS
T2 sequence (P11712 whole entry): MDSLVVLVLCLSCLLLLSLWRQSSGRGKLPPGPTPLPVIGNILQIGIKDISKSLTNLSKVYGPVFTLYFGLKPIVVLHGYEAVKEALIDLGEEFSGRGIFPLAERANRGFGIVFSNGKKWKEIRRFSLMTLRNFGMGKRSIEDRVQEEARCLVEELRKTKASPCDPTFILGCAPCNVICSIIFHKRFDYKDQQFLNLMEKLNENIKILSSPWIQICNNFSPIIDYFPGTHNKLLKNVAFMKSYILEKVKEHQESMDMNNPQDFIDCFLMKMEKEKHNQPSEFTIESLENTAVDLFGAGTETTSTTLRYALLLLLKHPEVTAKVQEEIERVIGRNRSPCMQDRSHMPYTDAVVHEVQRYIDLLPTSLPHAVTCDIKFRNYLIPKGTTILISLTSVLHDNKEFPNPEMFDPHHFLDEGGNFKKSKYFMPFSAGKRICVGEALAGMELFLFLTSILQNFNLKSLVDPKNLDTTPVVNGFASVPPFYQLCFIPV
T3 sequence (P10635 whole entry): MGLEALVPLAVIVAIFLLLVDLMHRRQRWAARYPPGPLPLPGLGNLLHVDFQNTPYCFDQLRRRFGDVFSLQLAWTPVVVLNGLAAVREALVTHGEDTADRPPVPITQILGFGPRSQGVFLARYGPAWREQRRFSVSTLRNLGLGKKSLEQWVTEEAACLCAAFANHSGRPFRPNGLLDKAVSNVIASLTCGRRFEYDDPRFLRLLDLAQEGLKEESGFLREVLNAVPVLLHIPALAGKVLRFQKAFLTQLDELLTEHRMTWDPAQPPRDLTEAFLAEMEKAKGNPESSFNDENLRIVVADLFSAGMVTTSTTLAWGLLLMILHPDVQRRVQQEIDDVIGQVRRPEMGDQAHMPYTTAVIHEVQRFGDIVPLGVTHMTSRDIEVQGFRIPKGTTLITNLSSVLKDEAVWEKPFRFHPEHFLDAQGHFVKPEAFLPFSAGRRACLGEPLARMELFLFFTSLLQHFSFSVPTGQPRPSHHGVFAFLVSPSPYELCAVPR

Work on `O=c1[nH]c(Nc2cc(Cl)cc(Cl)c2)nc2cc(Cl)ccc12` [6l, 7-Chloro-2-((3,5-dichlorophenyl)amino)quinazolin-4(3H)-one] yielded an inhibition at 10 µM (CYP1A2) of 15.1%, an IC50 [1] greater than 100 µM and an IC50 [2] of 31.4 µM. The “MS human, % of remaining after 30 min” value [3] was 99.3%, the inhibition at 10 µM (CYP2C9) was 18.2% and the fraction unbound at 5 μM [4] was 0.001. For the same compound, the IC50 (in vitro) was 11 µM, the MIC50 (S. aureus ATCC25923) was 1 µM (≈ 0.341 µg/mL) and the “MS rat, % of remaining after 30 min” value [5] was 104.7%. It also gave an inhibition at 10 µM (hERG) of 37.8%, a fraction unbound at 5 μM [6] of 0.002 and an AUC ([7]; I.V., 2 mg/kg) of 8500 ng·h/mL. The CL ([7]; I.V., 2 mg/kg) was 4.17 mL/min/kg, the T1/2 ([7]; I.V., 2 mg/kg) was 2.2 h and the Vss ([7]; I.V., 2 mg/kg) was 1.6 L/kg. For the same compound, the AUC ([7]; P.O., 10 mg/kg) was 6600 ng·h/mL, the Cmax ([7]; P.O., 10 mg/kg) was 0.9 and the Ft ([7]; P.O., 10 mg/kg) was 15.6%. For the same compound, the T1/2 ([7]; P.O., 10 mg/kg) was 5.7 h, the Tmax ([7]; P.O., 10 mg/kg) was 2.5 h and the inhibition at 10 µM (CYP2D6) was 20.1%. It also gave an MIC50 (S. aureus USA300 JE2) of 0.6 µM (≈ 0.204 µg/mL).

`O=c1[nH]c(NCc2ccc(F)c(F)c2)nc2cc(Cl)ccc12` [6y, 7-Chloro-2-((3,4-difluorobenzyl)amino)quinazolin-4(3H)-one] showed an inhibition at 10 µM (CYP1A2) of 92.5%, an IC50 [1] of 62 µM and an IC50 [2] of 79 µM. The “MS human, % of remaining after 30 min” value [3] was 42.9%, the inhibition at 10 µM (CYP2C9) was 91% and the fraction unbound at 5 μM [4] was 0.005. The IC50 (in vitro) was 51.6 µM, the MIC50 (S. aureus ATCC25923) was 0.36 µM (≈ 0.116 µg/mL) and the “MS rat, % of remaining after 30 min” value [5] was 53.8%. For the same compound, the inhibition at 10 µM (hERG) was 11.4%, the fraction unbound at 5 μM [6] was 0.002 and the Ft ([7]; P.O., 10 mg/kg) was 33.4%. It also gave a clearance [7, 8] of 30 mL/min/kg, a half-life [7, 8] of 8.5 h and an AUC ([7]; rat, in vivo, iv, I.V., 5 mg/kg, read-out: AUC) of 2800 ng·h/mL. For the same compound, the Vd ([7]; rat, in vivo, iv, I.V., 5 mg/kg, read-out: Vss) was 5.2 L/kg, the half-life ([7]; rat, in vivo, po, P.O., 10 mg/kg) was 3.6 h and the AUC ([7]; rat, in vivo, po, P.O., 10 mg/kg, read-out: AUC) was 1900 ng·h/mL. For the same compound, the Cmax ([7]; rat, in vivo, po, P.O., 10 mg/kg, read-out: Cmax) was 200 ng/mL, the Tmax ([7]; rat, in vivo, po, P.O., 10 mg/kg, read-out: Tmax) was 5.3 h and the inhibition at 10 µM (CYP2D6) was 90.1%. The MIC50 (S. aureus USA300 JE2) was 0.02 µM (≈ 0.00643 µg/mL).
